Measured values taken from a melting point compilation (Tetko et al.; mined from patent text by program, amines drawn as free bases though some values may be those of a salt).

| SMILES | melting point |
| --- | --- |
| CCCN(CCC)S(=O)(=O)c1cc(-c2csc(=Nc3ccc(C)cc3C)n2C)ccc1Cl | 139 to 141 °C |
| CC(C(=O)O)c1ccc(CC(Cl)(Cl)Cl)c(F)c1 (stereo not drawn) | 92 to 94 °C |
| CCSC1=N[C@@H](c2ccccc2)[C@H](c2ccccc2)N1 (relative stereo) | 130 to 132 °C |
| COc1ccc(CC[C@H](N)C(=O)O)cc1F | 164 to 167 °C |
| NC(=O)c1nccn1C1Sc2ccccc2C1=O (stereo not drawn) | 180 °C |
| Cc1ccccc1-n1ccc2c(NCCO)nc3c(C)cccc3c21 | 187 to 188 °C |
| O=S(=O)(c1ccc2c(c1)OC(c1ccccc1)(c1ccccc1)O2)N1CCCCC1 | 163 to 164 °C |
| Cc1noc(-c2ncn3c2[C@@H]2CCN2C(=O)c2c-3cccc2C(F)(F)F)n1 | 255 to 256 °C |
| N#CC1=C(C2CC2)Nc2n[nH]cc2C1c1cccc(C#N)c1Br (stereo not drawn) | > 250 °C |
| COC(=O)C1CC(C#N)(c2ccc(Cl)cc2)CCC1=O (stereo not drawn) | 141 to 144 °C |
| O=C(Nc1cscc1S(=O)(=O)c1ccc(Cl)cc1)N[C@@H](Cc1ccc(NC(=O)c2c(Cl)cccc2Cl)cc1)C(=O)O | 202 °C |
| COC(=O)Cn1c(C)cc(CC2CCCCC2)c([N+](=O)[O-])c1=O | 128 °C |
| CCOC(=O)CC1CCc2c(oc3ccc(Cl)cc23)C1 (stereo not drawn) | 54 to 55.5 °C |
| OC(c1ccccc1)(c1ccccc1)C(F)(F)C(F)(F)F | 82 to 83 °C |
| O=C(O)C(Cc1ccc(Cl)cc1Cl)c1c(Cl)cccc1Cl (stereo not drawn) | 220 to 222 °C |
| CCOc1cc2c(C)c(CCN3CCN(c4ccccc4)CC3)c(=O)oc2cc1OC | 164 to 165 °C |
| CCCN(C)C(=O)Nc1c(C(=O)c2ccccc2)[nH]c2cc(Cl)ccc12 | 168 to 171 °C |
| CN(CCc1ccccc1)C(=O)C(C)(Cc1c[nH]c2ccccc12)NC(=O)OC1C2CC3CC(C2)CC1C3 (stereo not drawn) | 90 to 95 °C |

| SMILES | melting point |
| --- | --- |
| CCOC(=O)/C=C(C)/C=C/C=C(\C)C1=Cc2cc(C(C)(C)C)ccc2OC1 | 129 °C |
| O=[N+]([O-])c1c(CO)cccc1CO | 100 to 101 °C |
| N#CC(CC1CCCCC1)c1n[nH]c2cc(O)ccc12 (stereo not drawn) | 175 °C |
| COC(=O)c1cc(F)c(OS(=O)(=O)c2c(C)cc(C)cc2C)nc1Nc1ccc(F)cc1F | 153 to 155 °C |
| CNCc1nnc2n1-c1ccc(Cl)cc1C(c1ccccc1F)=CC2 | 170 to 171 °C |
| CC(=O)OCC(=O)C1(OC(C)=O)C(C)CC2C3CC(C)C4=CC(=O)C=CC4(C)C3C(O)CC21C (stereo not drawn) | 124 to 126 °C |
| OCc1ccc(-c2ccc(-c3cn([C@H]4CN5CCC4CC5)nn3)o2)cc1 | 209 °C |
| C/C=C/C=C(\C[C@H](N)C(=O)O)C(=O)O | 190 °C |
| COc1ccc2cc(N)cc3c2c1C(=O)N(O)C3=O | > 250 °C |
| Cc1cc(-n2c(C)ccc2C)c(C)cc1N=CN(C)C | 90 to 91 °C |
| O=C(O)c1cc(-c2ncnc(C(F)F)c2Cl)c(F)cc1Cl | 217 to 219 °C |
| CCN(Cc1cc(Br)ccc1NCc1ccccc1)c1ccc(C(N)=O)nn1 | 160 to 162 °C |
| NC(=O)CNC(=O)c1ccc(F)c(-c2cccc3cc(Cc4cc(F)cc(Cl)c4)sc23)c1 | 159 to 160 °C |
| CS(=O)(=O)OC[C@@H]1Cc2cc3ccccc3n2C[C@H]1COS(C)(=O)=O (relative stereo) | 139 to 141 °C |
| CON=Cc1[nH]ccc1S(=O)(=O)NC(C)(C)C | 99 to 101 °C |
| CN=C(NC#N)N1CC1 | 130 to 132 °C |
| COC(=O)c1ccc(CNc2cc(C(=O)Nc3ccccc3)ccc2OC)cc1 | 170 to 172 °C |
| COC(=O)Cc1cccc(Cc2ccccc2C(=O)O)c1 | 67 to 70 °C |

Next, values leading:

| melting point | SMILES |
| --- | --- |
| 133 to 135 °C | COc1cccc(-c2ccc3nnn(Cc4ccc5ncccc5c4)c3n2)c1 |
| 321 to 324 °C | O=C1N=C(N2CCOCC2)SC1=Cc1ccccc1-c1ccc(O)c(C23CC4CC(CC(C4)C2)C3)c1 |
| 204 to 205 °C | CCS(=O)c1nn(-c2ccccc2)c(=O)c2c(N)scc12 (stereo not drawn) |
| > 268 °C | N#Cc1cccc(-c2cnc3cnc(-c4ccc(O)cc4)nc3c2)c1 |
| 69 to 71 °C | O=C1c2ccccc2C(=O)N1OCC/C=C/c1cccs1 |
| 202 °C | N#Cc1ncn2c(C(F)(F)F)cc(-c3ccccc3)nc12 |
| 193 to 196 °C | COc1ccc2c(c1)CN(c1ccc3c(ccn3C)c1)C2 |
| 97.6 to 98.5 °C | O=C(CCCCC1CCSS1)N1CCN(c2ccc([N+](=O)[O-])cc2)CC1 (stereo not drawn) |
| 130 to 132 °C | Cn1c(-c2ccc(OCC(O)CNC(C)(C)C)cc2)cc2ccccc2c1=O (stereo not drawn) |
| 103 to 105 °C | O=C(CCc1cccnc1)NCCCCC1CCN(S(=O)(=O)c2ccc3ccccc3c2)CC1 |
| 110 to 112 °C | COc1ccc2cc([C@H](C)C(=O)ON3C(=O)c4ccccc4C3=O)ccc2c1 |
| 235 to 238 °C | NCc1nc(-c2ncn3c2[C@@H]2CCN2C(=O)c2sccc2-3)no1 |
| 178 to 181 °C | CC(C)OC(=O)N1CCC(c2nc3ccc(-c4ccc(C(N)=O)c(F)c4)cc3o2)CC1 |
| 188 to 189 °C | CC(C)NCCOc1ccc(-c2nc3ccccc3c(=O)[nH]2)nc1-c1ccc(S(C)(=O)=O)cc1 |
| 108 to 112 °C | CC(C)(COc1ccc([N+](=O)[O-])cc1)N1CC(COc2cccc(Cl)c2)OC1=O (stereo not drawn) |
| 103 to 104 °C | O=C(NCCO)c1cccc(-c2cccc3nc(Oc4cccc(C(F)(F)F)c4)sc23)c1 |

| melting point | SMILES |
| --- | --- |
| 180 to 182 °C | Nc1cc(-c2ccccc2)c(=O)n2c1-c1sccc1CC2 |
| 176 to 180 °C | O=C(Nc1cc(Cl)ccc1-c1nnn[nH]1)c1cnn(-c2ccc(Cl)cc2)c1C(F)(F)F |
| 108 to 110 °C | O=C(c1ccc(F)cc1)N1CCC[C@H](c2noc(-c3ccc(F)cn3)n2)C1 |
| 171 to 188 °C | CCN1CCc2ccc(OC)c(Nc3ncc(Cl)c(Nc4ccccc4S(=O)(=O)NC)n3)c2CC1 |
| 245 to 248 °C | CC(C)(C)c1ccc(-c2nn3c(=O)c([N+](=O)[O-])c(Cl)nc3s2)cc1 |
| 102 to 104 °C | CNC(=O)CC1CN=C(c2cc3cc(Oc4ccc(COC)nc4)cc(OC)c3[nH]2)S1 (stereo not drawn) |
| 128 to 130 °C | C1=C(c2coc3ccccc23)N2CCCN=C2S1 |
| 142 to 144 °C | CS(=O)(=O)c1ccc(C2=C(c3ccc(Cl)cc3)C(=O)N(C3CCCCC3)C2)cc1 |
| 188 °C | CCCc1c(OCc2ccc(C(=O)O)cc2)ccc(C(C)=O)c1O |
| 138 to 139 °C | CCCc1nc(Cl)c(-c2ccc(C)cc2)c(NS(=O)(=O)c2ccc(C(C)(C)C)cc2)n1 |
| 174 to 175 °C | O=C(Nc1ccc(-n2nc(C(F)(F)F)cc2C(F)(F)F)cc1)C1CCCCCC1 |
| 120 to 122 °C | COc1ccc(-c2cc3cc(OC)cc(C(O)C(F)(F)F)c3o2)cc1 (stereo not drawn) |
| 177 to 180 °C | CC(C)(C)c1ccc(S(=O)(=O)Oc2ccc(C(c3ccc(OS(=O)(=O)c4ccc(C(C)(C)C)cc4)cc3)(C(F)(F)F)C(F)(F)F)cc2)cc1 |
| 189 to 190 °C | COCCSc1[nH]nc(-c2ccc(Cl)cc2)c1-c1ccncc1 |
| 140 to 141 °C | O=[N+]([O-])c1cn2c(n1)OC[C@@H](OCc1csc(-c3ccc(OC(F)(F)F)cc3)n1)C2 |
| 312 to 315 °C | FC(F)(F)c1ccc(-c2[nH]c(=S)[nH]c2-c2ccc(C(F)(F)F)cc2)cc1 |
